Results published in ChEMBL document CHEMBL5344477, “Discovery of benzoheterocyclic-substituted amide derivatives as apoptosis signal-regulating kinase 1 (ASK1) inhibitors” (RSC Med Chem, 2024).

Experiments:
[1] = Metabolic stability in rat liver microsomes assessed as clearance at 1 uM measured upto 90 mins by LC-MS/MS analysis; assay type: ADME, Microsome; conditions: read-out: CLH
[2] = Metabolic stability in rat liver microsomes assessed as half life at 1 uM measured upto 90 mins by LC-MS/MS analysis; assay type: ADME, Microsome
[3] = Metabolic stability in human liver microsomes assessed as half life at 1 uM measured upto 90 mins by LC-MS/MS analysis; assay type: ADME, Microsome
[4] = Metabolic stability in human liver microsomes assessed as clearance at 1 uM measured upto 90 mins by LC-MS/MS analysis; assay type: ADME, Microsome; conditions: read-out: CLH
[5] = AUClast in Sprague-Dawley rat at 1 mg/kg, iv measured upto 24 hrs by LC-MS/MS analysis; assay type: ADME, organism-based; design: dose 1 mg/kg, time < 24 hrs, route iv; conditions: in vivo
[6] = Cmax in Sprague-Dawley rat at 1 mg/kg, iv measured upto 24 hrs by LC-MS/MS analysis; assay type: ADME, organism-based; design: dose 1 mg/kg, time < 24 hrs, route iv; conditions: in vivo
[7] = Cmax in Sprague-Dawley rat at 5 mg/kg, po measured upto 24 hrs by LC-MS/MS analysis; assay type: ADME, organism-based; design: dose 5 mg/kg, time < 24 hrs, route po; conditions: in vivo
[8] = Half life in Sprague-Dawley rat at 1 mg/kg, iv measured upto 24 hrs by LC-MS/MS analysis; assay type: ADME, organism-based; conditions: in vivo
[9] = Oral bioavailability in Sprague-Dawley rat at 5 mg/kg measured upto 24 hrs by LC-MS/MS analysis; assay type: ADME, organism-based; conditions: in vivo
[10] = Apparent […] clearance in Sprague-Dawley rat at 1 mg/kg, iv measured upto 24 hrs by LC-MS/MS analysis; assay type: ADME, organism-based; conditions: in vivo
[11] = AUClast in Sprague-Dawley rat at 5 mg/kg, po measured upto 24 hrs by LC-MS/MS analysis; assay type: ADME, organism-based; design: dose 5 mg/kg, time < 24 hrs, route po; conditions: in vivo
[12] = Volume of distribution at steady state in Sprague-Dawley rat at 1 mg/kg, iv measured upto 24 hrs by LC-MS/MS analysis; assay type: ADME, organism-based; conditions: in vivo, read-out: Vdss
[13] = Half life in Sprague-Dawley rat at 5 mg/kg, po measured upto 24 hrs by LC-MS/MS analysis; assay type: ADME, organism-based; conditions: in vivo

Structure (SMILES)	CLint scaled at 1 µM [1]	half-life at 1 µM [2]	half-life at 1 µM [3]	CLint scaled at 1 µM [4]	AUC(0-t) at 24 h [5]	Cmax [6]	Cmax [7]	half-life [8]	bioavailability [9]	CL/F [10]	AUC(0-t) at 24 h [11]	Vd [12]	half-life [13]
O=C(Nc1cccc(-c2nncn2C2CCCC2)n1)c1cc2c(cc1F)OCc1cncn1-2	230 mL/min/kg	0.18 h	0.35 h	82.7 mL/min/kg									
O=C1COc2cc(F)c(C(=O)Nc3cccc(-c4nncn4-c4ccccc4)n3)cc2N1	4.7 mL/min/kg	8.74 h	2.55 h	11.4 mL/min/kg	5070 ng·h/mL	1580 ng/mL	3000 ng/mL	3.15 h	47.9%	3.33 mL/min/kg	12100 ng·h/mL	0.68 L/kg	2.95 h
O=C(Nc1cccc(-c2nncn2CC2CC2)n1)c1cc2c(cc1F)OCc1cncn1-2	151 mL/min/kg	0.275 h	1.2 h	24.1 mL/min/kg	706 ng·h/mL	804 ng/mL	3520 ng/mL	0.75 h		23.7 mL/min/kg	7820 ng·h/mL	1.13 L/kg	1.04 h
CC(C)n1cnnc1-c1cccc(NC(=O)c2cc3c(cc2F)CCCC(=O)N3C)c1	10.4 mL/min/kg	3.97 h	3.72 h	7.8 mL/min/kg	449 ng·h/mL	758 ng/mL	341 ng/mL	0.8 h	33.2%	36.8 mL/min/kg	712 ng·h/mL	1.44 L/kg	1.44 h
Cc1cc(F)c(C(=O)Nc2cccc(-c3nncn3C(C)C)n2)cc1-n1cnc(C2CC2)c1 [SELONSERTIB]						3030 ng/mL	6030 ng/mL		129%		38300 ng·h/mL	0.27 L/kg	
CC(C)n1cnnc1-c1cccc(NC(=O)c2cc3c(cc2F)OCC(=O)N3C)n1	16.8 mL/min/kg	2.46 h	5.67 h	5.1 mL/min/kg	2220 ng·h/mL	779 ng/mL	1830 ng/mL	1.62 h	97.9%	7.5 mL/min/kg	10900 ng·h/mL	1.49 L/kg	2.11 h
O=C(Nc1cccc(-c2nncn2C2CC2)n1)c1cc2c(cc1F)OCc1cncn1-2	181 mL/min/kg	0.228 h	1.34 h	21.7 mL/min/kg									
CC(C)N1C(=O)COc2cc(F)c(C(=O)Nc3cccc(-c4nncn4C(C)C)n3)cc21	140 mL/min/kg	0.297 h	0.917 h	31.6 mL/min/kg									
CC(C)n1cnnc1-c1cccc(NC(=O)c2cc3c(cc2F)OCc2cncn2-3)c1	378 mL/min/kg	0.11 h	0.458 h	63.3 mL/min/kg	329 ng·h/mL	235 ng/mL	445 ng/mL	0.63 h	57.4%	50.3 mL/min/kg	939 ng·h/mL	2.61 L/kg	1.13 h
CC(C)n1cnnc1-c1cccc(NC(=O)c2cc3c(cc2F)C(C)(C)CC(=O)N3C)n1	25.3 mL/min/kg	1.64 h	2.71 h	10.7 mL/min/kg	789 ng·h/mL	418 ng/mL	550 ng/mL	1.12 h	89.1%	20.8 mL/min/kg	3180 ng·h/mL	1.82 L/kg	5.02 h
O=C1COc2cc(F)c(C(=O)Nc3cccc(-c4nncn4C4CCCC4)n3)cc2N1	70.8 mL/min/kg	0.585 h	0.307 h	94.3 mL/min/kg	919 ng·h/mL	1080 ng/mL	1490 ng/mL	0.86 h	77.7%	18.2 mL/min/kg	3390 ng·h/mL	0.97 L/kg	2.36 h
CC(C)n1cnnc1-c1cccc(NC(=O)c2cc3c(cc2F)OCc2cncn2-3)n1	222 mL/min/kg	0.187 h	1.78 h	16.3 mL/min/kg	529 ng·h/mL	793 ng/mL	794 ng/mL	0.67 h	86.9%	31.3 mL/min/kg	2280 ng·h/mL	1.22 L/kg	1.1 h
O=C(Nc1cccc(-c2nncn2-c2ccccc2)n1)c1cc2c(cc1F)OCc1cncn1-2	160 mL/min/kg	0.258 h	1.1 h	26.4 mL/min/kg									

Results, then the compound that gave them:

CLint scaled at 1 µM [1]	half-life at 1 µM [2]	half-life at 1 µM [3]	CLint scaled at 1 µM [4]	AUC(0-t) at 24 h [5]	Cmax [6]	Cmax [7]	half-life [8]	bioavailability [9]	CL/F [10]	AUC(0-t) at 24 h [11]	Vd [12]	half-life [13]	Structure (SMILES)
				1200 ng·h/mL	945 ng/mL	1420 ng/mL	0.99 h	75.9%	13.8 mL/min/kg	4560 ng·h/mL	1.07 L/kg	2.03 h	CC(C)n1cnnc1-c1cccc(NC(=O)c2cc3c(cc2F)C(C)(C)CC(=O)N3)n1
7.5 mL/min/kg	5.49 h	17.3 h	1.7 mL/min/kg	222 ng·h/mL	274 ng/mL	58 ng/mL	0.68 h	15.1%	74.5 mL/min/kg	157 ng·h/mL	3.41 L/kg	1.79 h	CC(C)n1cnnc1-c1cccc(NC(=O)c2cc3c(cc2F)CCC(=O)N3)c1
19.5 mL/min/kg	2.12 h	2.96 h	9.8 mL/min/kg	229 ng·h/mL	514 ng/mL	27 ng/mL	0.22 h	2.1%	72.5 mL/min/kg	21 ng·h/mL	1.25 L/kg	1.55 h	CC(CO)n1cnnc1-c1cccc(NC(=O)c2cc3c(cc2F)OCC(=O)N3)n1 (stereo not drawn)
6.2 mL/min/kg	6.69 h	8.31 h	3.5 mL/min/kg	320 ng·h/mL	420 ng/mL	109 ng/mL	0.72 h	16%	52 mL/min/kg	252 ng·h/mL	2.19 L/kg	1.84 h	CC(C)n1cnnc1-c1cccc(NC(=O)c2cc3c(cc2F)CCCC(=O)N3)c1
13.3 mL/min/kg	3.12 h	4.98 h	5.8 mL/min/kg	1260 ng·h/mL	2080 ng/mL	334 ng/mL	0.71 h	8.8%	13.2 mL/min/kg	534 ng·h/mL	0.56 L/kg	1.46 h	CC(C)n1cnnc1-c1cccc(NC(=O)c2cc3c(cc2F)CCC(=O)N3)n1
9.5 mL/min/kg	4.37 h	16.3 h	1.8 mL/min/kg	108 ng·h/mL	262 ng/mL		0.28 h		154 mL/min/kg		3.01 L/kg		CC(CO)n1cnnc1-c1cccc(NC(=O)c2cc3c(cc2F)CCCC(=O)N3)n1 (stereo not drawn)
				381 ng·h/mL	597 ng/mL	582 ng/mL	0.73 h	116%	43.7 mL/min/kg	2210 ng·h/mL	1.56 L/kg	2.37 h	CC(C)n1cnnc1-c1cccc(NC(=O)c2cc3c(cc2F)CCCC(=O)N3C)n1
